Results: patent US9580390B2, “Indazole compounds as kinase inhibitors and method of treating cancer with same” (University Health Network, priority 2011, dated 2017)

The compounds below were run on colon cancer cells (HCT116) (assay: Cancer cell line growth inhibition (SRB assay)). Settings: Homo sapiens, HCT-116; HCT116 colon cancer cells, SRB assay; read-out: Cancer Cell Line GI50 Range HCT116.
Type: cell-based

Row | GI50 [nM] | SMILES
1 | 100 to 500 | C[C@H](NC(=O)c1ccc2[nH]nc(-c3ccc(N4CCOCC4)cc3)c2c1)C1CCCCC1 [Example A40, (S)-N-(1-cyclohexylethyl)-3-(4-morpholinophenyl)-1H-indazole-5-carboxamide]
2 | < 100 | COc1cc(-c2n[nH]c3ccc(NC(=O)C(c4ccsc4)N4CCCC4)cc23)ccc1OC1CCN(C)CC1 (stereo not shown) [Example A21, N-(3-(3-methoxy-4-((1-methylpiperidin-4-yl)oxy)phenyl)-1H -indazol-5-yl)-2-(pyrrolidin-1-yl)-2-(thiophen-3-yl)acetamide]
3 | 100 to 500 | O=C(N[C@@H](c1ccccc1)C1CC1)c1ccc2[nH]nc(-c3ccc(N4CCOCC4)cc3)c2c1 [Example A51, (R)-N-(cyclopropyl(phenyl)methyl)-3-(4-morpholinophenyl)-1H-indazole-5-carboxamide]
4 | < 100 | O=C(Nc1ccc2[nH]nc(-c3ccc(N4CCOCC4)cc3)c2c1)C(c1ccsc1)N1CCCCC1 (stereo not shown) [Example A32, N-(3-(4-morpholinophenyl)-1H-indazol-5-yl)-2-(piperidin-1-yl)-2-(thiophen-3-yl)acetamide]
5 | 100 to 500 | CN1CCN(Cc2ccc(-c3n[nH]c4ccc(NC(=O)C(c5ccsc5)N5CCCC5)cc34)cc2)CC1 (stereo not shown) [Example A67, N-(3-(4-((4-methylpiperazin-1-yl)methyl)phenyl)-1H-indazol-5-yl)-2-(pyrrolidin-1-yl)-2-(thiophen-3-yl)acetamide]
6 | < 100 | COc1cc(-c2n[nH]c3ccc(NC(=O)C(c4ccsc4)N4CCCC4)cc23)ccc1OC1CCNCC1 (stereo not shown) [Example A8, N-(3-(3-methoxy-4-(piperidin-4-yloxy)phenyl)-1H-indazol-5-yl)-2-(pyrrolidin-1-yl)-2-(thiophen-3-yl)acetamide]
7 | 100 to 500 | COc1cc(-c2n[nH]c3ccc(C(=O)NC(c4ccccc4)C4CC4)cc23)ccc1OC1CCN(C)CC1 (stereo not shown) [Example A19, N-(cyclopropyl(phenyl)methyl)-3-(3-methoxy-4-((1-methylpiperidin-4-yl)oxy)phenyl)-1H-indazole-5-carboxamide]
8 | < 100 | CN(C)CCOc1ccc(-c2n[nH]c3ccc(NC(=O)C(c4ccsc4)N4CCCC4)cc23)cc1 (stereo not shown) [Example A5, N-(3-(4-(2-(dimethylamino)ethoxy)phenyl)-1H-indazol-5-yl)-2-(pyrrolidin-1-yl)-2-(thiophen-3-yl)acetamide]
9 | 100 to 500 | CN1CCC(Oc2ccc(-c3n[nH]c4ccc(C(=O)N[C@@H]5CCCc6ccccc65)cc34)cc2)CC1 [Example A26, (R)-3-(4-((1-methylpiperidin-4-yl)oxy)phenyl)-N-(1,2,3,4-tetrahydronaphthalen-1-yl)-1H-indazole-5-carboxamide]

Second part, the compound before the results:

Row | SMILES | GI50 [nM]
10 | C[C@H]1CCCN1[C@H](C(=O)Nc1ccc2[nH]nc(-c3ccc(N4CCOCC4)cc3)c2c1)c1ccsc1 [Example A47, (S)-2-((S)-2-methylpyrrolidin-1-yl)-N-(3-(4-morpholinophenyl)-1H-indazol-5-yl)-2-(thiophen-3-yl)acetamide] | 100 to 500
11 | O=C(Nc1ccc2[nH]nc(-c3ccc(NC4CCCCC4)cc3)c2c1)C(c1ccsc1)N1CCCC1 (stereo not shown) [Example A68, N-(3-(4-(cyclohexylamino)phenyl)-1H-indazol-5-yl)-2-(pyrrolidin-1-yl)-2-(thiophen-3-yl)acetamide] | > 500
12 | O=C(Nc1ccc2[nH]nc(-c3ccc(CN4CCOCC4)cc3)c2c1)C(c1ccsc1)N1CCCC1 (stereo not shown) [Example A3, N-(3-(4-(morpholinomethyl)phenyl)-1H-indazol-5-yl)-2-(pyrrolidin-1-yl)-2-(thiophen-3-yl)acetamide] | 100 to 500
13 | CN1CCc2cc(-c3n[nH]c4ccc(NC(=O)C(c5ccsc5)N5CCCC5)cc34)ccc21 (stereo not shown) [Example A16, N-(3-(1-methylindolin-5-yl)-1H-indazol-5-yl)-2-(pyrrolidin-1-yl)-2-(thiophen-3-yl)acetamide] | 100 to 500
14 | O=C(N[C@H](c1ccccc1)C1CC1)c1ccc2[nH]nc(-c3ccc(N4CCOCC4)cc3)c2c1 [Example A49, (S)-N-(cyclopropyl(phenyl)methyl)-3-(4-morpholinophenyl)-1H-indazole-5-carboxamide] | 100 to 500
15 | Cc1cc(C)c(NC(=O)Nc2ccc3[nH]nc(-c4ccc(OC5CCN(C)CC5)cc4)c3c2)c(Cl)c1 [Example A77, 1-(2-chloro-4,6-dimethylphenyl)-3-(3-(4-((1-methylpiperidin-4-yl)oxy)phenyl)-1H-indazol-5-yl)urea] | 100 to 500
16 | C[C@@H](NC(=O)c1ccc2[nH]nc(-c3ccc(N4CCOCC4)cc3)c2c1)c1cccs1 [Example A53, (R)-3-(4-morpholinophenyl)-N-(1-(thiophen-2-yl)ethyl)-1H-indazole-5-carboxamide] | 100 to 500
17 | CN1CCN(c2ccc(-c3n[nH]c4ccc(NC(=O)C5CCCc6ccccc65)cc34)cc2)CC1 (stereo not shown) [Example A11, N-(3-(4-(4-methylpiperazin-1-yl)phenyl)-1H-indazol-5-yl)-1,2,3,4-tetrahydronaphthalene-1-carboxamide] | 100 to 500
18 | O=C(Nc1ccc2[nH]nc(-c3ccc(NC4CCCC4)cc3)c2c1)C(c1ccsc1)N1CCCC1 (stereo not shown) [Example A70, N-(3-(4-(cyclopentylamino)phenyl)-1H-indazol-5-yl)-2-(pyrrolidin-1-yl)-2-(thiophen-3-yl)acetamide] | 100 to 500
19 | CN1CCC(Oc2ccc(-c3n[nH]c4ccc(NC(=O)Nc5ccccc5Cl)cc34)cc2)CC1 [Example A62, 1-(2-chlorophenyl)-3-(3-(4-((1-methylpiperidin-4-yl)oxy)phenyl)-1H-indazol-5-yl)urea] | > 500
20 | CN1CCC(Oc2ccc(-c3n[nH]c4ccc(NC(=O)C5c6ccccc6CCN5C)cc34)cc2)CC1 (stereo not shown) [Example A39, 2-methyl-N-(3-(4-((1-methylpiperidin-4-yl)oxy)phenyl)-1H -indazol-5-yl)-1,2,3,4-tetrahydroisoquinoline-1-carboxamide] | < 100
21 | O=C(Nc1ccc2[nH]nc(-c3ccc4c(c3)OCCCO4)c2c1)C(c1ccsc1)N1CCCC1 (stereo not shown) [Example A20, N-(3-(3,4-dihydro-2H-benzo[b][1,4]dioxepin-7-yl)-1H-indazol-5-yl)-2-(pyrrolidin-1-yl)-2-(thiophen-3-yl)acetamide] | 100 to 500
22 | CN(C)CCCOc1ccc(-c2n[nH]c3ccc(NC(=O)C(c4ccsc4)N4CCCC4)cc23)cc1 (stereo not shown) [Example A43, N-(3-(4-(3-(dimethylamino)propoxy)phenyl)-1H-indazol-5-yl)-2-(pyrrolidin-1-yl)-2-(thiophen-3-yl)acetamide] | < 100
23 | CN1CCC(Oc2ccc(-c3n[nH]c4ccc(NC(=O)Nc5c(Cl)cccc5Cl)cc34)cc2)CC1 [Example A76, 1-(2,6-dichlorophenyl)-3-(3-(4-((1-methylpiperidin-4-yl)oxy)phenyl)-1H-indazol-5-yl)urea] | < 100
24 | O=C(Nc1ccc2[nH]nc(-c3ccc(OCCN4CCCC4)cc3)c2c1)C(c1ccsc1)N1CCCC1 (stereo not shown) [Example A44, 2-(pyrrolidin-1-yl)-N-(3-(4-(2-(pyrrolidin-1-yl)ethoxy)phenyl)-1H-indazol-5-yl)-2-(thiophen-3-yl)acetamideamide] | < 100
25 | COc1cc(-c2n[nH]c3ccc(C(=O)NC(c4ccccc4)C4CC4)cc23)ccc1OC1CCNCC1 (stereo not shown) [Example A13, N-(cyclopropyl(phenyl)methyl)-3-(3-methoxy-4-(piperidin-4-yloxy)phenyl)-1H-indazole-5-carboxamide] | 100 to 500
